For seven compounds, IC50 results are on record in patent publication US20260015363A1, “SUBSTITUTED PYRIMIDINE-FUSED RING INHIBITOR, METHOD FOR PREPARING SAME, AND USE THEREOF” (Suzhou Zelgen Biopharmaceuticals Co., Ltd., priority 2022, published 2026).

Where a name gives a salt, the structure may show the parent alone.

The test has as its system AsPC-1 (G12D). Nature of the test: KRAS mutant cell proliferation inhibition assay (CellTiter-Glo 3D), AsPC-1. The class given is cell-based, human. Conditions: Homo sapiens, ASPC1, 168 h, AsPC-1 (G12D) cells, 7 days. Here is the method:
Positive control: MRTX1133
• (a) The cells were thawed in T75 cell culture flasks: • (b) When 80%-90% cell confluence was achieved, the cells were passaged.
The diluted test compound was added to a 384-well cell culture plate using a nanoliter pipetting system, and replicate wells were set. An equal volume of medium was added to the positive control group; an equal volume of DMSO was added to the negative control group. The plate was centrifuged at 1000 rpm at room temperature for 1 min.
The cells were seeded into a) 384-well culture plate. An equal volume of cells was added to the negative control group, and only an equal volume of medium was added to the positive control group. The plate was centrifuged at 1000 rpm at room temperature for 1 min. The final DMSO concentration in the final compound was 0.5%. The plate was incubated in a thermostatic incubator at 37° C. with 5% CO2 for 7 days.
CellTiter-Glo® 3D was added to b) 384-well cell culture plate at 20 μL/well. The plate was shaken at 320 rpm in the dark for 20 min, and incubated at room temperature in the dark for 2 h. The luminescence values were read using an Envision multi-mode microplate reader.
The inhibition rates (IRs) of the test compounds were calculated according to the following formula: IR (%)=(1−(RLU compound−RLU blank control)/(RLU vehicle control−RLU blank control))×100%. The inhibition rates of the compounds at different concentrations were calculated in Excel, and then inhibition curves were plotted and relevant parameters including minimum inhibition rate, maximum inhibition rate and IC50 were calculated using GraphPad Prism software.
For orientation: Cellular ATP, detected with luciferase, serves as a proxy for viable cell number.
Regarding `CCc1c(F)ccc2cc(O)cc(-c3ncc4c(N5CCC6(COC6)C5)nc(OC[C@@]56CCCN5C[C@@]5(CC5(F)F)C6)nc4c3F)c12` [Example A-21, 4-(2-(((1S,7a'S)-2,2-Difluorodihydro-1′H,3′H-spiro[cyclopropane-1,2′-pyrrolizin]-7a′ (5′H)-yl)methoxy)-8-fluoro-4-(2-oxa-6-azaspiro[3.4]octan-6-yl)pyrido[4,3-d]pyrimidin-7-yl)-5-ethyl-6-fluoronaphthalen-2-ol], the half-maximal inhibitory concentration (IC50) (commonly the concentration that gives 50% inhibition) is > 1000 nM.
With `CCc1c(F)ccc2cc(O)cc(-c3ncc4c(N5CCC6(CCO6)C5)nc(OC[C@@]56CCCN5C[C@@]5(CC5(F)F)C6)nc4c3F)c12` (stereo partly shown) [Example A-22, 4-(2-(((1.S,7a'S)-2,2-Difluorodihydro-1′H,3′H-spiro[cyclopropane-1,2′-pyrrolizin]-7a′ (5′H)-yl)methoxy)-8-fluoro-4-(1-oxa-6-azaspiro[3.4]octan-6-yl)pyrido[4,3-d]pyrimidin-7-yl)-5-ethyl-6-fluoronaphthalen-2-ol], the IC50 is > 1000 nM.
The figure for `CCc1c(F)ccc2cc(O)cc(-c3ncc4c(N5CC6(CCO6)C5)nc(OC[C@@]56CCCN5C[C@@]5(CC5(F)F)C6)nc4c3F)c12` [Example A-23, 4-(2-(((1S,7a'S)-2,2-Difluorodihydro-1′H,3′H-spiro[cyclopropane-1,2′-pyrrolizin]-7a′ (5′H)-yl)methoxy)-8-fluoro-4-(1-oxa-6-azaspiro[3.4]heptan-6-yl)pyrido[4,3-d]pyrimidin-7-yl)-5-ethyl-6-fluoronaphthalen-2-ol] is > 1000 nM.
As for `CCc1c(F)ccc2cc(O)cc(-c3ncc4c(N(C)C5CC5)nc(OC[C@@]56CCCN5C[C@@]5(CC5(F)F)C6)nc4c3F)c12` [Example A-40, 4-(4-(Cyclopropyl(methyl)amino)-2-(((1S,7a'S)-2,2-difluorodihydro-1′H,3′ H-spiro[cyclopropane-1,2′-pyrrolizin]-7a′ (5′H)-yl)methoxy) 8-fluoropyrido[4,3-d]pyrimidin-7-yl)-5-ethyl-6-fluoronaphthalen-2-ol], the figure is > 1000 nM.
The figure for `CN(c1nc(OC[C@@]23CCCN2C[C@@]2(CC2(F)F)C3)nc2c(F)c(-c3cc(N)cc(Cl)c3C(F)(F)F)ncc12)C1CC1` [Example A-41, 7-(5-Amino-3-chloro-2-(trifluoromethyl)phenyl)-N-cyclopropyl-2-(((1S,7a'S)-2,2-difluorodihydro-1′H,3′H-spiro[cyclopropane-1,2′-pyrrolizin]-7a′ (5′H)-yl)methoxy)-8-fluoro-N-methylpyrido[4,3-d]pyrimidin-4-amine] is > 1000 nM; for `CCc1c(F)ccc2cc(O)cc(-c3ncc4c(N(C)C(C)C5CC5)nc(OC[C@@]56CCCN5C[C@@]5(CC5(F)F)C6)nc4c3F)c12` (stereo partly shown) [Example A-42, 4-(4-((1-Cyclopropylethyl)(methyl)amino)-2-(((15,7a'S)-2,2-difluorodihydro-1′H,3′H-spiro[cyclopropane-1,2′-pyrrolizin]-7a′ (5′H)-yl)methoxy)-8-fluoropyrido[4,3-d]pyrimidin-7-yl)-5-ethyl-6-fluoronaphthalen-2-ol trifluoroacetate] it is > 1000 nM; for `CC(C1CC1)N(C)c1nc(OC[C@@]23CCCN2C[C@@]2(CC2(F)F)C3)nc2c(F)c(-c3cc(N)cc(Cl)c3C(F)(F)F)ncc12` (stereo partly shown) [Example A-43, 7-(5-Amino-3-chloro-2-(trifluoromethyl)phenyl)-N-(1-cyclopropylethyl)-2-(((1.S,7a'S)-2,2-difluorodihydro-1′H,3′H-spiro[cyclopropane-1,2′-pyrrolizin]-7a′ (5′H)-yl)methoxy)-8-fluoro-N-methylpyrido[4,3-d]pyrimidin-4-amine trifluoroacetate] it is 986 nM.
